Values joined by “and” are separate entries in the source; they are usually repeats but may differ in a detail not shown here. Equal entries are not always repeated.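 Method: 48-hour compound exposure of cells in 96-well plates, five concentrations, linear interpolation of endpoints. GI50: concentration for 50% inhibition of growth. TGI denotes the concentration required for complete inhibition of growth.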
Experiments:
Experiment in all cases: growth of human tumour cells (NCI), 48 h
[1] = system: IGROV1 ovarian
[2] = system: 786-0 renal
[3] = system: CCRF-CEM leukemia
[4] = system: DU-145 prostate
[5] = system: HOP-62 NSCLC
[6] = system: HCC-2998 colon
[7] = system: NCI-H460 lung
[8] = system: HCT-116 colon
[9] = system: MCF7 breast
[10] = system: OVCAR-3 ovarian

| SMILES | GI50 [1] | TGI [1] | GI50 [2] | TGI [2] | GI50 [3] | TGI [3] | TGI [4] | GI50 [5] | TGI [5] | GI50 [6] | TGI [6] | GI50 [7] | TGI [7] | GI50 [8] | TGI [8] | GI50 [9] | TGI [9] | GI50 [10] | TGI [10] | GI50 [4] |
| --- | --- | --- | --- | --- | --- | --- | --- | --- | --- | --- | --- | --- | --- | --- | --- | --- | --- | --- | --- | --- |
| C=C1C(=O)O[C@H]2C3OC3(C)CC/C=C(/C(=O)OC)[C@@H](OC(C)=O)[C@H](OC(=O)C3(C)OC3C)[C@H]12 (some centres undefined) | 1.47 µM and 3.2 µM and 2.29 µg/mL | 3.17 µM and 14.6 µM and 5.62 µg/mL | 1.65 µM and 362 nM and 1.26 µg/mL | 3.73 µM and 8.4 µM and 3.45 µg/mL | 0.173 µM and 0.231 µM | 0.461 µM and 1.15 µM | 29 µM | 11.9 µM and 5.74 µg/mL | 24.3 µM and 18.1 µg/mL | 3.65 µM and 2.5 µg/mL | 12.4 µM and 4.62 µg/mL | 3.13 µM and 3.6 µg/mL | 11.1 µM and 9.89 µg/mL | 1.17 µM and 668 nM and 0.444 µg/mL | 2.39 µM and 1.67 µM and 1.19 µg/mL | 0.334 µM | 7.16 µM and 1.28 µM | 1.37 µM and 0.984 µg/mL | 4.07 µM and 3.13 µg/mL | – |
| CC[C@H](C)C(=O)O[C@H]1CCC=C2C=C[C@H](C)[C@H](CC[C@@H]3C[C@@H](O)CC(=O)O3)[C@H]21 | 5 µM | > 100 µM | 8.95 µM | > 74.5 µM | 34.1 µM | > 100 µM | > 100 µM | 12.4 µM | > 100 µM | 36.9 µM | > 100 µM | 8.59 µM | > 100 µM | 2.84 µM | > 59 µM | > 42.5 µM | > 100 µM | – | > 100 µM | 51.6 µM |
| CN(C)c1ccc2cc3c(cc2c1)Oc1ccccc1N3.[Cl][Zn][Cl] | 12.8 µM | 33.8 µM | 2.85 µM | 9.48 µM | 3.26 µM | 9.71 µM | 20.9 µM | – | – | 16.5 µM | 31.8 µM | 20.1 µM | 52.2 µM | 2.04 µM | 4.34 µM | 1.53 µM | 3.91 µM | 1.5 µM | 3 µM | 8.24 µM |
| Fc1ccc(-c2c(-c3ccncc3)[nH]c3cccnc23)cc1 | 8.45 µM | > 25 µM | > 25 µM | > 25 µM | > 25 µM | > 25 µM | > 25 µM | > 25 µM | > 25 µM | > 25 µM | > 25 µM | 18.3 µM | > 25 µM | > 25 µM | > 25 µM | 13.8 µM | > 25 µM | > 22.2 µM | > 25 µM | > 22.7 µM |
| Cc1c(C(=O)/C=C/c2ccc(Cl)cc2)nnn1-c1ccnc2c(C(F)(F)F)cccc12 | 97.3 µM | > 100 µM | 45.6 µM | > 100 µM | 15.3 µM | > 100 µM | > 100 µM | 22 µM | 47.8 µM | 72.8 µM | > 100 µM | 48.9 µM | > 100 µM | 25.6 µM | > 100 µM | 70.7 µM | > 100 µM | 36.6 µM | > 100 µM | > 100 µM |
| COc1ccc(C2CC(c3ccc4ccccc4c3)=NN2c2nc(O)c(C3=c4cc(Cl)ccc4=NC3=O)s2)cc1 (centres undefined) | 0.0254 µM | 0.0736 µM | 0.0231 µM and < 0.005 µM | – | 0.0362 µM and < 0.005 µM | 0.533 µM | 0.147 µM and 0.2 µM | 0.025 µM and < 0.005 µM | – | 0.0216 µM and < 0.005 µM | – | 0.0216 µM | 0.0472 µM | 0.0338 µM and < 0.005 µM | 0.122 µM and 0.107 µM | 0.0292 µM and < 0.005 µM | – | 0.0202 µM and < 0.005 µM | 0.0396 µM and < 0.005 µM | 0.0331 µM and < 0.005 µM |
| CN(CO)c1nc(N(C)CO)nc(N(C)CO)n1 | 16.1 µM | 67.1 µM and 79.1 µM | 29.6 µM | 56.9 µM and 105 µM | 25.5 µM | 73.6 µM | 64.8 µM and 76.5 µM | 42.6 µM | > 90.7 µM and 56.7 µM | 27.9 µM and 25.5 µM | 67.8 µM and 52.4 µM | 17.2 µM and 13.9 µM | 43.6 µM and 42.8 µM | 21.7 µM and 11.7 µM | 53.2 µM and 47.3 µM | 32 µM | 99.1 µM and 56.4 µM | – | 62.1 µM and 63.5 µM | 29 µM |
| O=c1[nH][nH]c(=O)c2c(O)c(-c3ccccc3)ncc12 | 247 µM | 835 µM | 19.4 µM and 26.7 µM | 42.1 µM and 90.4 µM | 35.2 µM and 55.1 µM | 894 µM | > 1000 µM | 27.9 µM and 86.9 µM | 87.3 µM and 471 µM | 34.9 µM and 103 µM | 642 µM | 55.6 µM and 146 µM | 634 µM | 55 µM and 132 µM | 405 µM | 47 µM and 199 µM | > 1000 µM | 27.6 µM and 84 µM | 84.2 µM and 468 µM | 58.5 µM and 144 µM |
| CC[C@H](C)[C@H](NC(=O)[C@H]1CCCCN1C)C(=O)N(C)[C@H](C[C@@H](OC(C)=O)c1nc(C(=O)NC23C4C5C2C2C3C4C52C(=O)OC)cs1)C(C)C (some centres undefined) | 0.00242 µM and 0.0025 µM | 20.1 µM | 0.00359 µM and 0.0025 µM | > 25 µM | 0.0027 µM and 0.0025 µM | 3.33 µM | 0.031 µM | 0.00265 µM and 0.0025 µM | > 25 µM | 0.00336 µM and 0.0025 µM | 14.3 µM | 0.003 µM and 0.0025 µM | > 25 µM | 0.00355 µM and 0.0025 µM | 0.088 µM | 0.000557 µM and 0.0025 µM | > 25 µM | 0.000489 µM and < 0.0025 µM | – | 0.00113 µM and 0.0025 µM |
| CN1CCN(C(=O)[C@@]2(C)CC[C@]3(C)CC[C@]4(C)C(=CC[C@@H]5[C@@]6(C)CC[C@H](OC(=O)c7cccnc7)C(C)(C)[C@@H]6CC[C@]54C)[C@@H]3C2)CC1 | 1.93 µM | 3.89 µM | 1.75 µM | 3.22 µM | 2.35 µM | 6.45 µM | 3.51 µM | – | – | 1.81 µM | 3.33 µM | 1.78 µM | 3.33 µM | 1.48 µM | 2.87 µM | 1.49 µM | 3.17 µM | 1.74 µM | 3.29 µM | 1.81 µM |
| O=C1NC(c2cccc3ccccc23)Nc2ccccc21 (centres undefined) | 0.0636 µM | > 100 µM | 0.0254 µM | > 100 µM | 0.0296 µM | 0.538 µM | 8.11 µM | 0.0317 µM | 29.6 µM | 0.173 µM | 0.743 µM and 0.489 µM | 0.0405 µM | 0.73 µM and 4.89 µM | – | – | 0.284 µM | 2.56 µM | 0.0215 µM | 0.0568 µM and 0.0442 µM | 0.046 µM |
| Cn1c2ccccc2c2c(=O)n(CCCC(=O)NCCc3cnc[nH]3)c3c(-c4ccccc4)nnn3c21 | – | – | 2.19 µM | 8.15 µM | 1.51 µM | > 50 µM | 13.8 µM | 7.67 µM | 16.9 µM | 9.51 µM | 19.7 µM | 10.9 µM | 24.3 µM | 5.95 µM | 13.8 µM | 13 µM | 30.3 µM | 8.39 µM | 16.3 µM | 6.88 µM |

Source: PubChem BioAssay (NCI)
